Data as given in US6673368B2, “Colonic motor dysfunction remedies comprising aminothiazole derivatives as active ingredients” (Zeria Phamaceutical Co., Ltd., priority 2000, dated 2004).

What was measured:
[1] = tested on: gastric antrum of male dogs; test: Effects on gastric motor activity (force transducers, conscious dogs, postcibal period); assay type: in vivo; conditions: dog, until 1 hour after administration, 30 minutes before administration = 100%
Text: (§1) Test 1 [Effects on Gastric and Colonic Motor Activity]
(§2) Force transducers (“F-12IS”, trade name; manufactured by Star Medical Technologies, Inc.) were chronically sutured in the gastric antrum and large intestines of male dogs (body weight: 9 to 11 kg, 5 to 6 dogs per group) (Itoh, Z. et al., Am. J. Dig. Dis. 22, 117-124, 1977). Contraction signals from the respective regions in postcibal period were amplified and recorded (“RTA-1200”, trade name; manufactured by Nihon Kohden Corporation). The contraction signals, which had been collected in a computer, were analyzed by using an analysis program (“DSSDDWHD V.30”, trade name; prepared by Nihon Kohden Corporation), whereby motor indexes were calculated. The test drugs were administered through catheters which had been chronically indwelled beforehand in the duodenum, respectively. Supposing that the coefficient of motor 30 minutes before the administration of drug was 100%, the results were calculated as percents of motor index until 1 hour after the administration.

[2] = tested on: large intestines of male dogs; test: Effects on colonic motor activity (force transducers, conscious dogs, postcibal period); assay type: in vivo; conditions: dog; for Percent of motor index, large intestine: until 1 hour after administration, 30 minutes before administration = 100%; for Effect on colonic motility (in words): intraduodenal, doses of Table 1
Text: as §1, §2

male SD rats = test: Effects on defecation in rats; assay type: in vivo, rat; conditions: 10 mg/kg intraperitoneal, dry stool weight until 60 minutes after administration, control average = 100%
Experimental: Test 2 [Effects on Defecation]
Test drugs were intraperitoneally administered to male SD rats (8 rats per group). Stools were recovered until 60 minutes after the administration, and their dry weights were measured. Supposing that that the average of stool weights in a control group was 100%, the averages of percent weights of individual test drug groups were calculated.

## COc1cc(N)c(Cl)cc1C(=O)NC1CCN(CCCOc2ccc(F)cc2)CC1OC (stereo not drawn) [Cisapride, cisapride]
[1]; 1 mg/kg intraduodenal
  Percent of motor index, gastric antrum: 158.7%
[2]; 1 mg/kg intraduodenal
  Percent of motor index, large intestine: 114.5%
[2]
  Effect on colonic motility (in words): no significant effect

## COc1cc(O)c(C(=O)Nc2nc(C(=O)NCCN(C(C)C)C(C)C)cs2)cc1OC.Cl.O.O.O [Compound 1, N-(N′,N′-diisopropylaminoethyl)-[2-(2-hydroxy-4,5-dimethoxybenzoylamino)-1,3-thiazol-4-yl]carboxamide HCL trihydrate]
Male SD rats
  Percent stool weight: 361.8%
[1]; 10 mg/kg intraduodenal
  Percent of motor index, gastric antrum: 163.7%
[2]; 10 mg/kg intraduodenal
  Percent of motor index, large intestine: 136.1%

## CC(C)N(CCNC(=O)c1csc(NC(=O)c2cccc(C#N)c2)n1)C(C)C.Cl [Compound 2, N-(N′,N′-diisopropylaminoethyl)-[2-(3-cyanobenzoyl-amino)-1,3-thiazol-4-yl]carboxamide hydrochloride]
Male SD rats
  Percent stool weight: 766.7%
[1]; 10 mg/kg intraduodenal
  Percent of motor index, gastric antrum: 189.5%
[2]; 10 mg/kg intraduodenal
  Percent of motor index, large intestine: 221.7%

## CC(C)N(CCNC(=O)c1csc(NC(=O)c2cccc(N)c2)n1)C(C)C [Compound 3, N-(N′,N′-diisopropylaminoethyl)-[2-(3-aminobenzoyl-amino)-1,3-thiazol-4-yl]carboxamide]
Male SD rats
  Percent stool weight: 733.3%
[1]; 10 mg/kg intraduodenal
  Percent of motor index, gastric antrum: 244.6%
[2]; 10 mg/kg intraduodenal
  Percent of motor index, large intestine: 249.9%

## COc1ccc(C(=O)NCc2ccc(OCCN(C)C)cc2)cc1OC [Itopride, itopride]
[1]; 10 mg/kg intraduodenal
  Percent of motor index, gastric antrum: 132.7%
[2]; 10 mg/kg intraduodenal
  Percent of motor index, large intestine: 122.1%
[2]
  Effect on colonic motility (in words): no significant effect

## CCOc1cc(N)c(Cl)cc1C(=O)NCC1CN(Cc2ccc(F)cc2)CCO1 (stereo not drawn) [Mosapride, mosapride]
[1]; 3 mg/kg intraduodenal
  Percent of motor index, gastric antrum: 146.2%
[2]; 3 mg/kg intraduodenal
  Percent of motor index, large intestine: 119.2%
[2]
  Effect on colonic motility (in words): no significant effect
